Data: paper PMC4303209, “A novel phosphatidylinositol 3-kinase (PI3K) inhibitor directs a potent FOXO-dependent, p53-independent cell cycle arrest phenotype characterized by the differential induction of a subset of FOXO-regulated genes” (Breast Cancer Research : BCR, 2014)

Test system: MCF-7 breast cancer cells
Assay: Microarray gene expression analysis (Agilent whole human genome 4 x 44K; compound vs DMSO, LIMMA log2 fold change)
Type: cell-based
Details: cell cycle genes

Oc1cccc(-c2nc(N3CCOCC3)c3oc4ncccc4c3n2)c1 [PI-103]
TUBB3 log2FC (Gene 10381): -0.59
ANAPC10 log2FC (Gene 10393): 0.20
NDRG1 log2FC (Gene 10397): 1.49
GNB2L1 log2FC (Gene 10399): -0.0332
PRMT5 log2FC (Gene 10419): -0.13
MAD2L2 log2FC (Gene 10459): 0.16
TACC3 log2FC (Gene 10460): -0.29
CREB3 log2FC (Gene 10488): -0.0661
MYBBP1A log2FC (Gene 10514): -0.30
CIB1 log2FC (Gene 10519): -0.08
SSSCA1 log2FC (Gene 10534): -0.27
DCTN2 log2FC (Gene 10540): 0.11
SMC2 log2FC (Gene 10592): 0.63
ERN2 log2FC (Gene 10595): -0.68
USP16 log2FC (Gene 10600): 0.68
HEXIM1 log2FC (Gene 10614): -0.43
SPAG5 log2FC (Gene 10615): 0.36
STAMBP log2FC (Gene 10617): 0.27
TXNIP log2FC (Gene 10628): 2.21
PDPN log2FC (Gene 10630): -0.0347
RGS14 log2FC (Gene 10636): 0.71
CTCF log2FC (Gene 10664): -0.22
CGRRF1 log2FC (Gene 10668): 0.54
CGREF1 log2FC (Gene 10669): 0.00665
USP39 log2FC (Gene 10713): -0.0422
NUDC log2FC (Gene 10726): -0.38
PLK4 log2FC (Gene 10733): 0.52
STAG3 log2FC (Gene 10734): 0.43
STAG2 log2FC (Gene 10735): 1.19
NES log2FC (Gene 10763): -0.28
PLK2 log2FC (Gene 10769): -0.93
NEK6 log2FC (Gene 10783): -0.68
SDCCAG8 log2FC (Gene 10806): 0.62
TUBGCP2 log2FC (Gene 10844): 0.037
LILRB1 log2FC (Gene 10859): -0.21
USP19 log2FC (Gene 10869): 0.38
BLCAP log2FC (Gene 10904): -0.47
TXNL4A log2FC (Gene 10907): -0.46
SUGT1 log2FC (Gene 10910): 0.24
GADD45G log2FC (Gene 10912): -0.19
EHMT2 log2FC (Gene 10919): 0.25
BTG3 log2FC (Gene 10950): 0.00788
MAPRE2 log2FC (Gene 10982): -0.34
KIF2C log2FC (Gene 11004): 0.44
TLK2 log2FC (Gene 11011): 0.62
RAB35 log2FC (Gene 11021): -0.44
TDRKH log2FC (Gene 11022): 0.0086
PIM2 log2FC (Gene 11040): -0.54
UBE2C log2FC (Gene 11065): -0.18
TRIOBP log2FC (Gene 11078): 0.53
NUPL2 log2FC (Gene 11097): -0.024
KATNA1 log2FC (Gene 11104): 0.67
PRDM4 log2FC (Gene 11108): 0.26
CIT log2FC (Gene 11113): 0.53
ZWINT log2FC (Gene 11130): -0.23
CDC37 log2FC (Gene 11140): -0.17
LZTS1 log2FC (Gene 11178): -0.98
WDR6 log2FC (Gene 11180): -0.36
RASSF1 log2FC (Gene 11186): 0.72
CEP250 log2FC (Gene 11190): -0.14
PMF1 log2FC (Gene 11243): -0.18
DCTN3 log2FC (Gene 11258): 0.31
TUSC2 log2FC (Gene 11334): -0.50
OIP5 log2FC (Gene 11339): 0.0365
MAPRE1 log2FC (Gene 22919): -0.57
MAPRE3 log2FC (Gene 22924): 0.0211
TRIM32 log2FC (Gene 22954): -0.32
TPX2 log2FC (Gene 22974): -0.00173
AZI1 log2FC (Gene 22994): 0.93
CEP152 log2FC (Gene 22995): 0.55
USP33 log2FC (Gene 23032): 0.88
WAPAL log2FC (Gene 23063): 0.61
TRIM35 log2FC (Gene 23087): 0.20
CLASP2 log2FC (Gene 23122): 0.55
POGZ log2FC (Gene 23126): 0.58
PHF8 log2FC (Gene 23133): -0.18
SMC5 log2FC (Gene 23137): -0.36
FBXL7 log2FC (Gene 23194): 0.0429
PSME4 log2FC (Gene 23198): -0.07
RRS1 log2FC (Gene 23212): -0.91
NUP210 log2FC (Gene 23225): -0.44
PLCB1 log2FC (Gene 23236): 1.31
BOP1 log2FC (Gene 23246): -0.18
NUP160 log2FC (Gene 23279): -0.78
FBXW11 log2FC (Gene 23291): -0.28
UBR2 log2FC (Gene 23304): 0.76
USP22 log2FC (Gene 23326): 0.07
CLASP1 log2FC (Gene 23332): -0.36
PPP1R13B log2FC (Gene 23368): 0.0642
DICER1 log2FC (Gene 23405): -0.87
SIRT1 log2FC (Gene 23411): 1.17
ITGB3BP log2FC (Gene 23421): 0.69
PES1 log2FC (Gene 23481): -0.38
ZFYVE26 log2FC (Gene 23503): 0.40
SCRIB log2FC (Gene 23513): 0.03
CCNDBP1 log2FC (Gene 23582): 0.71
CD2AP log2FC (Gene 23607): 0.81
NUP62 log2FC (Gene 23636): -0.63
RABGAP1 log2FC (Gene 23637): 0.55
PPP1R15A log2FC (Gene 23645): 0.51
POLA2 log2FC (Gene 23649): -0.87
ZNF318 log2FC (Gene 24149): 0.53
RAD54B log2FC (Gene 25788): 0.42
NIPBL log2FC (Gene 25836): 0.88
INTS7 log2FC (Gene 25896): -0.23
AHCTF1 log2FC (Gene 25909): 0.40
SIN3A log2FC (Gene 25942): 0.89
SH2B1 log2FC (Gene 25970): -0.49
EGFL6 log2FC (Gene 25975): 0.03
SENP6 log2FC (Gene 26054): 0.54
FBXO6 log2FC (Gene 26270): 0.37
FBXO5 log2FC (Gene 26271): 0.49
NUPR1 log2FC (Gene 26471): 0.07
AATF log2FC (Gene 26574): -0.41
CKAP2 log2FC (Gene 26586): 0.63
HBP1 log2FC (Gene 26959): 2.74
MLH3 log2FC (Gene 27030): 0.23
MTBP log2FC (Gene 27085): 0.79
TJP3 log2FC (Gene 27134): 0.31
VPS4A log2FC (Gene 27183): -0.29
PDCD4 log2FC (Gene 27250): 1.70
APEX2 log2FC (Gene 27301): -0.66
UBE2S log2FC (Gene 27338): -0.66
EML4 log2FC (Gene 27436): -0.50
PPP2R3B log2FC (Gene 28227): 0.28
MCTS1 log2FC (Gene 28985): -0.21
HIPK2 log2FC (Gene 28996): -0.14
BRD7 log2FC (Gene 29117): 0.53
RACGAP1 log2FC (Gene 29127): 0.55
UHRF1 log2FC (Gene 29128): -0.33
PSMC3IP log2FC (Gene 29893): -0.14
GPSM2 log2FC (Gene 29899): 0.32
SAC3D1 log2FC (Gene 29901): 0.09
RPA4 log2FC (Gene 29935): 0.55
ANAPC4 log2FC (Gene 29945): 0.43
SERTAD1 log2FC (Gene 29950): -0.75
CUZD1 log2FC (Gene 50624): 0.31
PARD6A log2FC (Gene 50855): 0.11
GMNN log2FC (Gene 51053): -0.12
RPS27L log2FC (Gene 51065): 0.28
MLXIPL log2FC (Gene 51085): 0.34
SBDS log2FC (Gene 51119): 0.46
DYNC1LI1 log2FC (Gene 51143): 0.52
ING4 log2FC (Gene 51147): 1.59
TUBE1 log2FC (Gene 51175): 0.0372
LEF1 log2FC (Gene 51176): -0.89
HERC5 log2FC (Gene 51191): 0.75
NUSAP1 log2FC (Gene 51203): 0.74
DUSP13 log2FC (Gene 51207): 0.0185
WAC log2FC (Gene 51322): 0.91
DACT1 log2FC (Gene 51339): 0.04
FZR1 log2FC (Gene 51343): -0.32
TAOK3 log2FC (Gene 51347): 1.14
PRKAG2 log2FC (Gene 51422): -0.54
SNX9 log2FC (Gene 51429): 0.42
ANAPC7 log2FC (Gene 51434): -0.32
LCMT1 log2FC (Gene 51451): 0.00313
